# Tested on: IMR-90 fibroblasts
# Type: cell-based, human
# Details: for number of cells following irradiation: 5 Gy IR, 10 days
# Method: Human fetal lung fibroblasts (IMR-90) were cultured in Dulbecco's modified eagle medium (DMEM) supplemented with 10% FBS and penicillin/streptomycin. LL 29 (AnHa) cells were obtained from the ATCC and growth to confluence using the ATCC protocol, but were subcultured as described for IMR-90 before initiation of all experiments. Quiescence was induced by replacing culture media with media containing 0.2% FBS. MCF-7 and MDA-MB-231 breast cancer cells were cultured in RPMI supplemented with 10% FBS and penicillin/streptomycin. All cells were cultured at 3% O2, and used between 25 and 40 population doublings. All cells were mycoplasma free.
# RNA was extracted from cells or tissues using commercially available kits (Isolate II—Bioline for cells; Direct-zol—Zymo for tissues) according to the manufacturer's instructions. cDNA synthesis was performed using a High Capacity cDNA Reverse Transcription Kit (Thermo Fisher) according to the manufacturer's instructions. Quantitative PCR was performed on a LightCycler 480 II (Roche) using primers and probes designed for the Universal Probe Library. Primers and probes used for human transcripts were ACTB: 5′-CCAACCGCGAGAAGATGA (SEQ ID NO:1), 5′-TCCATCACGATGCCAGTG (SEQ ID NO:2), Probe #64; TUBA: 5′-cttcgtctccgccatcag (SEQ ID NO:3), 5′-ttgccaatctggacacca (SEQ ID NO:4), Probe #58; ALOX5: 5′-[…] (SEQ ID NO:5), 5′-[…] (SEQ ID NO:6), Probe #64; ALOX5AP: 5′-ggtctgcggggctacttt (SEQ ID NO:7), 5′-[…] (SEQ ID NO:8), Probe #18; ALOX12: 5′-[…] (SEQ ID NO:9), 5′-agccaggtcgtcaggag (SEQ ID NO:10), Probe #32; ALOX15: 5′-[…] (SEQ ID NO:11), 5′-[…] (SEQ ID NO:12), Probe #76; ALOX15B: 5′-[…] (SEQ ID NO:13), 5′-actgggaggcgaagaagg (SEQ ID NO:14), Probe #51; AKR1C1: 5′-catgcctgtcctgggattt (SEQ ID NO:15), 5′-[…] (SEQ ID NO:16), Probe #49; AKR1C2: 5′-ctatgcgcctgcagaggt (SEQ ID NO:17), 5′-[…] (SEQ ID NO:18), Probe #31; AKR1C3: 5′-[…] (SEQ ID NO:19), 5′-[…] (SEQ ID NO:20), Probe #78; CYSLTR2: 5′-[…] (SEQ ID NO:21), 5′-[…] (SEQ ID NO:22), Probe #18; DPEP1: 5′-gacgtcctgaggctggtg (SEQ ID NO:23), 5′-[…] (SEQ ID NO:24), Probe #9 (SEQ ID NO:25), ELOVL2: 5′-[…] (SEQ ID NO:26), 5′-[…] (SEQ ID NO:27), Probe #53; ELOVL4: 5′-catttggcccatggattc (SEQ ID NO:28), 5′-[…] (SEQ ID NO:29), Probe #31; ELOVL5: 5′-cccttccatgcgtccata (SEQ ID NO:30), 5′-[…] (SEQ ID NO:31), Probe #31; EPHX2: 5′-ttctgctggacaccctgaa (SEQ ID NO:32), 5′-[…] (SEQ ID NO:33), Probe #45; GPX4: 5′-ttcccgtgtaaccagttcg (SEQ ID NO:34), 5′-[…] (SEQ ID NO:35), Probe #36; LTA4H: 5′-ctgctctcacggtccagtc (SEQ ID NO:36), 5′-[…] (SEQ ID NO:37), Probe #64; LTBR2: 5′-[…] (SEQ ID NO:38), 5′-[…] (SEQ ID NO:39), Probe #33; LTC4S: 5′-[…] (SEQ ID NO:40), 5′-[…] (SEQ ID NO:41), Probe #18; PTGDS: 5′-[…] (SEQ ID NO:42), 5′-[…] (SEQ ID NO:43), Probe #36; PTGES: 5′-agagatgcctgcccacag (SEQ ID NO:44), 5′-tggccaccacgtacatctt (SEQ ID NO:45), Probe #4; PTGES2: 5′-[…] (SEQ ID NO:46), 5′-[…] (SEQ ID NO:47), Probe #49; PTGES3 (SEQ ID NO:48), 5′-[…] (SEQ ID NO:49), 5′-[…] (SEQ ID NO:50), Probe #48; PTGIS: 5′-[…] (SEQ ID NO:51), 5′-[…] (SEQ ID NO:52), Probe #45; PTGR1: 5′-atgatggggcagcaagtg (SEQ ID NO:53), 5′-cccatcagaaatggagtgc (SEQ ID NO:54), Probe #64; PTGS1: 5′-[…] (SEQ ID NO:55), 5′-gtggtggtccatgttcctg (SEQ ID NO:56), Probe #81; PTGS2: 5′-gatccccagggctcaaac (SEQ ID NO:57), 5′-[…] (SEQ ID NO:58), Probe #61; TBXAS1: 5′-[…] (SEQ ID NO:59), 5′-tgcctcccgtgtgaatct (SEQ ID NO:60), Probe #73; AREG: 5′-[…] (SEQ ID NO:61), 5′-[…] (SEQ ID NO:62), Probe #73; CCL2: 5′-AGTCTCTGCCGCCCTTCT (SEQ ID NO:63), 5′-GTGACTGGGGCATTGATTG (SEQ ID NO:64), Probe #40; CCL27: 5′-[…] (SEQ ID NO:65), 5′-gctgggtggcagtaggaat (SEQ ID NO:66), Probe #18; CXCL1: 5′-[…] (SEQ ID NO:67), 5′-[…] (SEQ ID NO:68), Probe #52; HGF: 5′-[…] (SEQ ID NO:69), 5′-[…]
SMILES,number of cells following irradiation,cell number relative to DMSO-treated SEN(IR) cells (SEN(IR) cells counted for IL-6 ELISA normalization)
CS(=O)(=O)Nc1ccc([N+](=O)[O-])cc1OC1CCCCC1 [NS-398],significantly increased,increase in cell number
CC(c1cc2ccccc2s1)N(O)C(N)=O (stereo not drawn) [zileuton],mildly increased,–

# — patent publication US20200371122A1, “BIOMARKER FOR SENESCENT CELLS” (Buck Institute for Research on Aging, priority 2017, published 2020)
